# Results taken from publication PMC4014984, “The tetrapeptide core of the carrier peptide Xentry is cell-penetrating: novel activatable forms of Xentry” (Scientific Reports, 2014).
# Square brackets hold non-standard residues; d marks the D form. Peptide text beside a SMILES is read from it. * marks the point of attachment. FITC = O=C1OC2(c3ccc(O)cc3Oc3cc(O)ccc32)c2ccc(NC(=S)*)cc21
# Experiments:
# [1] = test system: WM-266-4 cells; experiment: Cell-penetrating ability of Xentry peptides, fluorescence microscopy; details: for Uptake by WM-266-4 cells (in words): FITC-labelled L-isomeric peptides, 10 μM, 3 h, fixed cells; for Uptake by WM-266-4 cells: scored visually, labelled peptides incubated 3 h at 37°C, L-isomers in media without FCS, D-isomers with FCS
# [2] = test system: BT549 cells; experiment: as above; details: for Uptake by BT549 cells (in words): FITC-labelled L-isomeric peptides, 10 μM, 3 h, fixed cells; for Uptake by BT-549cells: scored visually, labelled peptides incubated 3 h at 37°C, L-isomers in media without FCS
# [3] = test system: HepG2 cells; experiment: Cell-penetrating ability of Xentry peptides, fluorescence/confocal microscopy; details: for Uptake by HepG2 cells (in words): FITC-labelled L-isomeric peptides, 10 μM, 3 h, fixed cells, fluorescence or confocal microscopy; for Uptake by HepG2 cells: scored visually, fluorescence microscopy, labelled peptides incubated 3 h at 37°C, L-isomers in media without FCS, D-isomers with FCS
# [4] = test system: HepG2 cells; experiment: Quantification of peptide uptake by overall cell fluorescence in wells (plate reader); details: HepG2, 10 μM, 3 h, media without FCS, plate reader ex 485 nm / em 520 nm, mean ± SD n = 4, Student's t-test
# [5] = test system: HepG2 cells
# [6] = test system: HepG2 cells; remark: listed apart in the source
# [7] = test system: MCF-7 cells; experiment: Uptake of activatable Xentry peptides with or without MMP-9 pretreatment; details: then 3 h with MCF-7 cells, fluorescence or confocal microscopy
Compound,Uptake by WM-266-4 cells (in words) [1],Uptake by WM-266-4 cells [1],Uptake by BT549 cells (in words) [2],Uptake by BT-549cells [2],Uptake by HepG2 cells (in words) [3],Uptake by HepG2 cells [3],further results
LLLRR,poorly cell-permeable,-,poorly cell-permeable,-,failed to improve cell-penetrating ability,-,
LCLN,,+,,+++,,+,Cell-penetrating ability compared with LCLR (overall cell fluorescence in wells) [4]: reduced activity
LCLRPVG,,,,+++,,,
LCLRPVGGGGGGGGGGGGGGGLCLRPVG,,,,,,,Uptake of linear multivalent forms of Xentry by HepG2 cells [5]: unable to penetrate
LCLRPVGGGRRRQQQQQQRRR,,,,,,,Effect on HepG2 viability relative to the other three CPPs [6]: least effect; Effect on viability of HepG2 cells [6]: no significant affect
GRKKRRQRRRPPQGGRRRQQQQQQRRR [penetratin],,,,,,,Effect on viability of HepG2 cells [6]: no significant affect
CC(C)C[C@@H](N)C(=O)N[C@H](CS)C(=O)N[C@H](CC(C)C)C(=O)N[C@H](CCCNC(=N)N)C(=O)N1CCC[C@@H]1C(=O)N[C@@H](C(=O)NCC(=O)NCC(=O)NCC(=O)NCC(=O)N1CCC[C@H]1C(=O)N[C@@H](CC(C)C)C(=O)NCC(=O)N[C@@H](CC(C)C)C(=O)N[C@@H](C)C(=O)NCC(=O)NCC(=O)N[C@H](CC(C)C)C(=O)N[C@H](CS)C(=O)N[C@H](CC(C)C)C(=O)N[C@H](CCCNC(=N)N)C(=O)N1CCC[C@@H]1C(=O)N[C@@H](C(=O)NCC(=O)N[C@H](CCCCNC(=S)Nc1ccc2c(c1)C(=O)OC21c2ccc(O)cc2Oc2cc(O)ccc21)C(=O)O)C(C)C)C(C)C [lclrpvGGGGPLGLAGGlclrpvgk-FITC] (H-[dL][dC][dL][dR][dP][dV]GGGGPLGLAGG[dL][dC][dL][dR][dP][dV]G[dK](FITC)-OH),,,,,,,"Uptake by MCF-7 cells after pretreatment with MMP-9 ([7]; 10 μM peptide incubated 3 h at 37°C with activated MMP-9 (0.4 μg/ml)): led to uptake of the digested peptide; Uptake by MCF-7 cells, peptide not treated with MMP-9 ([7]; 10 μM peptide left untreated): not cell-permeable"

# Second part, led by results:
Uptake by WM-266-4 cells (in words) [1],Uptake by WM-266-4 cells [1],Uptake by BT549 cells (in words) [2],Uptake by BT-549cells [2],Uptake by HepG2 cells (in words) [3],Uptake by HepG2 cells [3],Compound,further results
readily taken up,+++,readily taken up,+++,less well,++,LCLE,Cell-penetrating ability compared with LCLR (overall cell fluorescence in wells) [4]: not significantly different
poorly cell-permeable,-,poorly cell-permeable,-,improved cell uptake,++,VVVR,
,+,maintained cell-permeability,+++,did not improve uptake,++,LCLQ,Cell-penetrating ability compared with LCLR (overall cell fluorescence in wells) [4]: not significantly different
taken up well,+++,taken up well,,taken up well,,LCLK,Cell-penetrating ability compared with LCLR (overall cell fluorescence in wells) [4]: reduced activity
poorly cell-permeable,-,poorly cell-permeable,+,poorly penetrated,+,LLLLR,
poorly cell-permeable,-,poorly cell-permeable,-,poorly penetrated,-,LLLR,
poorly cell-permeable,-,poorly cell-permeable,,improved cell uptake,,IIIR,
